Measured values as given in ChEMBL document CHEMBL1136964, “Nicotinic agonist binding site mapped by methionine- and tyrosine-scanning coupled with azidochloropyridinyl photoaffinity labeling” (J Med Chem, 2009).

What was measured:
Type in all cases: cell-based
[1] = test system: HEK293S; assay: Binding affinity to Aplysia californica AchBP S114M, M116L, Y195F mutant expressed in HEK293S cells assessed as specific photoincorporation at 46 pmol by scintillation counting
[2] = Binding affinity to Aplysia californica AchBP V108M, M116L, Y195F mutant expressed in HEK293S cells by scintillation proximity assay
[3] = Binding affinity to Aplysia californica AchBP I118M, M116L, Y195F mutant expressed in HEK293S cells by scintillation proximity assay
[4] = test system: HEK293S; assay: Binding affinity to Aplysia californica AchBP M116Y mutant expressed in HEK293S cells assessed as specific photoincorporation at 46 pmol by scintillation counting relative to wild type
[5] = Binding affinity to Aplysia californica AchBP V108M, M116L mutant expressed in HEK293S cells by scintillation proximity assay
[6] = test system: HEK293S; assay: Binding affinity to Aplysia californica AchBP M116L,Y195F mutant expressed in HEK293S cells assessed as specific photoincorporation at 46 pmol by scintillation counting relative to wild type
[7] = Binding affinity to Aplysia californica AchBP V108M mutant expressed in HEK293S cells by scintillation proximity assay
[8] = test system: HEK293S; assay: Binding affinity to Aplysia californica AchBP I118M, M116L mutant expressed in HEK293S cells assessed as specific photoincorporation at 46 pmol by scintillation counting
[9] = test system: HEK293S; assay: Binding affinity to Aplysia californica AchBP M116Y, Y195F mutant expressed in HEK293S cells assessed as specific photoincorporation at 46 pmol by scintillation counting relative to wild type
[10] = test system: HEK293S; assay: Binding affinity to wild type Aplysia californica AchBP expressed in HEK293S cells assessed as specific photoincorporation at 46 pmol by scintillation counting
[11] = test system: HEK293S; assay: Binding affinity to Aplysia californica AchBP I106M, M116L, Y195F mutant expressed in HEK293S cells assessed as specific photoincorporation at 46 pmol by scintillation counting relative to wild type
[12] = test system: HEK293S; assay: Binding affinity to Aplysia californica AchBP I118M, M116L mutant expressed in HEK293S cells assessed as specific photoincorporation at 46 pmol by scintillation counting relative to wild type
[13] = test system: HEK293S; assay: Binding affinity to Aplysia californica AchBP S114M, M116L mutant expressed in HEK293S cells assessed as specific photoincorporation at 46 pmol by scintillation counting relative to wild type
[14] = test system: HEK293S; assay: Binding affinity to Aplysia californica AchBP A107M mutant expressed in HEK293S cells assessed as specific photoincorporation at 46 pmol by scintillation counting
[15] = Binding affinity to Aplysia californica AchBP I106M, M116L mutant expressed in HEK293S cells by scintillation proximity assay
[16] = test system: HEK293S; assay: Binding affinity to Aplysia californica AchBP Y195F mutant expressed in HEK293S cells assessed as specific photoincorporation at 46 pmol by scintillation counting relative to wild type
[17] = test system: HEK293S; assay: Binding affinity to Aplysia californica AchBP V108M, M116L, Y195F mutant expressed in HEK293S cells assessed as specific photoincorporation at 46 pmol by scintillation counting

## Clc1ccc(C2CC3CCC2N3)cn1 (racemic) [EPIBATIDINE]
[1]
  Activity: 3.9%
[2]
  Kd: 2.9 nM
[3]
  Kd: 24 nM
[4]
  Activity: 59%
[5]
  Kd: 2.9 nM
[6]
  Activity: 6.9%
[7]
  Kd: 7.6 nM
[8]
  Activity: 16%
[9]
  Activity: 30%
[10]
  Activity: 29%
[11]
  Activity: 13%
[12]
  Activity: 55%
[13]
  Activity: 66%
[14]
  Activity: 27%
[15]
  Kd: 12 nM
[16]
  Activity: 3.4%
[17]
  Activity: 0%
